From patent publication US12686664B2, “SOCE inhibitors and therapeutic uses thereof” (Institut National de la Santé et de la Recherche Médicale …, priority 2020, dated 2026)
Structures can show the parent of a compound that is named as a salt. Where two headings read alike, the source gives them in different places. Marks after values point to notes of the source that are not given here. Values belong to the compound of their own block, whether it stands above or below them.

Test system: store-operated Ca^2+ entry in PLP-B lymphocytes
Test: Store-operated Ca2+ entry after thapsigargin depletion of ER Ca2+ stores in PLP-B lymphocytes
Assay type: cell-based
Conditions: for IC50: SOCE in PLP-B lymphocytes, average of three assays, ±0.5 μM
Method: The effects of the molecules developed were tested on PLP-B lymphocytes. Store-operated Ca^2+ entry was induced by depletion of Endoplasmic Reticulum Ca^2+ stores (ER Ca^2+ stores) with thapsigargin (Tg) in a Ca^2+-free medium and measured following the addition of 1.8 mM of CaCl2) in the extracellular medium. The results are compared to the results obtained for known SOCE inhibitors SKF-96365, GSK-7975A, Synta 66.

[1] = Lymphocyte, 100 μM, thapsigargin (Tg) peak, PLP-B lymphocytes, % of inhibition (−) or activation, read-out: Effect on amplitude of Tg Peak
[2] = Lymphocyte, 10 μM, PLP-B lymphocytes, % of inhibition (−) or activation, DMSO control 100%, read-out: Effect on amplitude of SOCE Peak
[3] = Lymphocyte, 10 μM, thapsigargin (Tg) peak, PLP-B lymphocytes, % of inhibition (−) or activation, read-out: Effect on amplitude of Tg Peak
[4] = Lymphocyte, 50 μM, PLP-B lymphocytes, % of inhibition (−) or activation, DMSO control 100%, read-out: Effect on amplitude of SOCE Peak
[5] = Lymphocyte, 50 μM, thapsigargin (Tg) peak, PLP-B lymphocytes, % of inhibition (−) or activation, read-out: Effect on amplitude of Tg Peak
[6] = Lymphocyte, 100 μM, PLP-B lymphocytes, % of inhibition (−) or activation, DMSO control 100%, read-out: Effect on amplitude of SOCE Peak
[7] = 10 μM, PLP-B lymphocytes, % of inhibition (−) or activation, DMSO control 100%
[8] = 50 μM, PLP-B lymphocytes, % of inhibition (−) or activation, DMSO control 100%
[9] = 100 μM, PLP-B lymphocytes, % of inhibition (−) or activation, DMSO control 100%
[10] = Lymphocyte, PLP-B lymphocytes, % of inhibition (−) or activation, DMSO control 100%, read-out: Effect on amplitude of SOCE Peak
[11] = Lymphocyte, thapsigargin (Tg) peak, PLP-B lymphocytes, % of inhibition (−) or activation, read-out: Effect on amplitude of Tg Peak
[12] = Lymphocyte, 1 μM, PLP-B lymphocytes, % of inhibition (−) or activation, DMSO control 100%, read-out: Effect on amplitude of SOCE Peak
[13] = Lymphocyte, 1 μM, thapsigargin (Tg) peak, PLP-B lymphocytes, % of inhibition (−) or activation, read-out: Effect on amplitude of Tg Peak

Compound: COc1ccc(CCCOc2ccc(CCn3cncn3)cc2)cc1 [6βe DAD 3.470]
Effect on amplitude of SOCE peak (50 μM, PLP-B lymphocytes, % of inhibition (−) or activation, DMSO control 100%, listed as 6βe): −6.0% | Effect on amplitude of Tg Peak (50 μM, thapsigargin (Tg) peak, PLP-B lymphocytes, % of inhibition (−) or activation, listed as 6βe): −31.0# % | Effect on amplitude of SOCE peak (100 μM, PLP-B lymphocytes, % of inhibition (−) or activation, DMSO control 100%, listed as 6βe): −21.0# % | inhibition at 100 µM [1]: 31%

Compound: CS(=O)(=O)Oc1ccc(Cn2c(C(F)(F)F)nc3ccccc32)cc1 [8αc, 4-((2-(Trifluoromethyl)-1H-benzo[d]imidazol-1-yl)methyl)phenyl methane sulfonate]
inhibition at 10 µM [2]: 14% | inhibition at 10 µM [3]: -10% | inhibition at 50 µM [4]: 9% | inhibition at 50 µM [5]: -10% | inhibition at 100 µM [6]: 24% | inhibition at 100 µM [1]: 32%

Compound: COc1ccc(COc2ccc(CCn3cnc(C(F)(F)F)n3)cc2)cc1 [6βg DAD 3.472]
inhibition at 50 µM [4]: 5% | inhibition at 50 µM [5]: 18% | inhibition at 100 µM [6]: 37% | inhibition at 100 µM [1]: 25%

Compound: 1-(4-(Methoxymethoxy)-2-(trifluoromethyl)-1H-benzo[d]imidazole [6αaf VAL3.33]
Effect on amplitude of SOCE peak [7]: 40.0# % | Effect on amplitude of Tg Peak (10 μM, thapsigargin (Tg) peak, PLP-B lymphocytes, % of inhibition (−) or activation): −29.0# % | Effect on amplitude of SOCE peak [8]: 1.0% | Effect on amplitude of Tg Peak (50 μM, thapsigargin (Tg) peak, PLP-B lymphocytes, % of inhibition (−) or activation): −34.0# % | Effect on amplitude of SOCE peak [9]: −2.0% | Effect on amplitude of Tg Peak (100 μM, thapsigargin (Tg) peak, PLP-B lymphocytes, % of inhibition (−) or activation): −38.0# %

Compound: Oc1ccc(CCOc2ccc(CCn3cnc4cc(F)ccc43)cc2)cc1 [12αc, 5-Fluoro-1-(4-(4-hydroxyphenethoxy)phenethyl)-1H-benzo[d]imidazol hydrochloride]
inhibition at 10 µM [2]: -20% | inhibition at 10 µM [3]: -11% | inhibition at 50 µM [4]: -3% | inhibition at 50 µM [5]: -2% | inhibition at 100 µM [6]: -1% | inhibition at 100 µM [1]: -5%

IC50 (Lymphocyte): 13.5 µM
Compound: COc1ccccc1CCOc1ccc(CCn2cnc3ccccc32)cc1 [6αac DAD 4-566]
inhibition at 0.1 µM [10]: -12.9% | inhibition at 0.1 µM [11]: -2.3% | inhibition at 1 µM [12]: -6.2% | inhibition at 1 µM [13]: 1.1% | inhibition at 10 µM [2]: 31.1% | inhibition at 10 µM [3]: -9.6% | inhibition at 50 µM [4]: 87.2% | inhibition at 50 µM [5]: -9% | inhibition at 100 µM [6]: 84.3% | inhibition at 100 µM [1]: -13.2%

Compound: Fc1ccc(CCOc2ccc(CCn3cnc4ccccc43)cc2)cc1 [6αd DAD 4-568]
inhibition at 10 µM [2]: 7.8% | inhibition at 10 µM [3]: 8.5% | inhibition at 50 µM [4]: -1.3% | inhibition at 50 µM [5]: 5.3% | inhibition at 100 µM [6]: 64% | inhibition at 100 µM [1]: 15.1%

Compound: Nc1ccc2c(c1)nc(C(F)(F)F)n2CCc1ccc(OCCCc2ccccc2)cc1 [6αv VAL 1-64]
inhibition at 10 µM [2]: -8% | percent change in peak amplitude vs DMSO control (negative = inhibition, positive = activation) at 10 µM [3]: 0% | inhibition at 50 µM [4]: 25% | inhibition at 50 µM [5]: -11% | inhibition at 100 µM [6]: 77% | inhibition at 100 µM [1]: -2%

IC50 (Lymphocyte): 1.6 µM
Compound: Fc1ccc2c(c1)ncn2CCc1ccc(OCCc2ccc(OC3CCCCO3)cc2)cc1 (stereo not drawn) [11αc, 5-Fluoro-1-(4-(4-((tetrahydro-2H-pyran-2-yl)oxy)phenethoxy)phenethyl)-1H-benzo[d]imidazole]
inhibition at 0.1 µM [10]: -67% | inhibition at 0.1 µM [11]: -16% | inhibition at 1 µM [12]: -26% | inhibition at 1 µM [13]: -4% | inhibition at 10 µM [2]: 31% | inhibition at 10 µM [3]: 10% | inhibition at 50 µM [4]: 54% | inhibition at 50 µM [5]: 12% | inhibition at 100 µM [6]: 35% | inhibition at 100 µM [1]: -3%

Compound: c1ccc(CCCOc2ccc(CCn3ncc4ccccc43)cc2)cc1 [6αab DAD 4-575]
inhibition at 10 µM [2]: -20.8% | inhibition at 10 µM [3]: 8.9% | inhibition at 50 µM [4]: 2.9% | inhibition at 50 µM [5]: 20.7% | inhibition at 100 µM [6]: 43.6% | inhibition at 100 µM [1]: 24.2%

Compound: Oc1ccc(CCn2cnc3ccccc32)cc1 [12αa, 1-(4-Hydroxyphenylethyl)-1H-benzo[d]imidazol hydrochloride]
inhibition at 10 µM [2]: -2.2% | inhibition at 10 µM [3]: -2.7% | inhibition at 50 µM [4]: 0.9% | inhibition at 50 µM [5]: -4.3% | inhibition at 100 µM [6]: -2.5% | inhibition at 100 µM [1]: -7.4%

Compound: COCOc1ccc(CCn2ncc3ccccc32)cc1 [6αae VAL3.32, 1-(4-(Methoxymethoxy)phenethyl)-1H-indazole]
inhibition at 10 µM [2]: -39% | inhibition at 10 µM [3]: 26% | inhibition at 50 µM [4]: -23% | inhibition at 50 µM [5]: 19% | inhibition at 100 µM [6]: 24% | inhibition at 100 µM [1]: 27%

Compound: CS(=O)(=O)Oc1ccc(Cn2cncn2)cc1 [8βb, 4-((1H-1,2,4-Triazol-1-yl)methyl)phenyl methanesulfonate]
inhibition at 0.1 µM [10]: 19% | inhibition at 0.1 µM [11]: 23% | inhibition at 1 µM [12]: 23% | inhibition at 1 µM [13]: 9% | inhibition at 10 µM [2]: 27% | inhibition at 10 µM [3]: 3% | inhibition at 50 µM [4]: 41% | inhibition at 50 µM [5]: -2% | inhibition at 100 µM [6]: 35% | inhibition at 100 µM [1]: 6%

Compound: Oc1ccc(Cn2cnc3cc(F)ccc32)cc1 [9αe]
inhibition at 10 µM [2]: -6% | inhibition at 10 µM [3]: 3% | inhibition at 50 µM [4]: 5% | inhibition at 50 µM [5]: 8% | inhibition at 100 µM [6]: 21% | inhibition at 100 µM [1]: 15%

Compound: COc1ccc(CCOc2ccc(CCn3c(C(F)(F)F)nc4cc(N)ccc43)cc2)cc1 [6αm VAL 1-77]
inhibition at 10 µM [2]: -4% | inhibition at 10 µM [3]: 1% | inhibition at 50 µM [4]: 12% | inhibition at 50 µM [5]: 1% | inhibition at 100 µM [6]: 55% | inhibition at 100 µM [1]: 11%

Compound: COc1ccc(CCCOc2ccc(CCn3ncc4ccccc43)cc2)cc1 [6αaa DAD 4-574]
inhibition at 10 µM [2]: 10.4% | inhibition at 10 µM [3]: 23.1% | inhibition at 50 µM [4]: 16.4% | inhibition at 50 µM [5]: 13.3% | inhibition at 100 µM [6]: 31.6% | inhibition at 100 µM [1]: 19.7%

IC50 (Lymphocyte): 25 µM
Compound: COc1ccc(CCCOc2ccc(CCn3cccn3)cc2)cc1 [Compound 6βp]
inhibition at 1 µM [12]: -16%

Compound: Oc1ccc(CCn2cncn2)cc1 [12βa, 1-(4-Hydroxyphenylethyl)-1H-1,2,4-triazole hydrochloride]
inhibition at 10 µM [2]: 8% | inhibition at 10 µM [3]: 8% | inhibition at 50 µM [4]: 10% | inhibition at 50 µM [5]: 14% | inhibition at 100 µM [6]: 12% | inhibition at 100 µM [1]: 8%

IC50: 8.8 µM
Compound: COc1ccc(OC)c(-c2ccc(NC(=O)c3ccncc3F)cc2)c1 [Synta 66, reference compound]
Effect on amplitude of SOCE peak (1 μM, PLP-B lymphocytes, % of inhibition (−) or activation, DMSO control 100%): 9.0% | Effect on amplitude of SOCE peak [7]: 6.0% | Effect on amplitude of SOCE peak [8]: −74.0% | Effect on amplitude of SOCE peak [9]: −89.0%

Compound: COc1ccc(CCOc2ccc(CCn3c(C(F)(F)F)nc4ccccc43)cc2)cc1 [6αc DAD 4-546, 1-(4-(4-Methoxyphenethoxy)phenethyl)-2-trifluoromethyl-1H-benzo[d]imidazole]
inhibition at 50 µM [4]: 30% | inhibition at 50 µM [5]: 18% | inhibition at 100 µM [6]: 26% | inhibition at 100 µM [1]: 18%

Compound: FC(F)(F)c1ccn(CCc2ccc(OCCCc3ccccc3)cc2)n1 [6βt DAD 3.363]
inhibition at 50 µM [4]: 7.7% | inhibition at 100 µM [6]: 19.1%

Compound: CS(=O)(=O)Oc1ccc(Cn2nc(C(F)(F)F)cc2C(F)(F)F)cc1 [8βc]
inhibition at 10 µM [2]: 12% | inhibition at 10 µM [3]: -4% | inhibition at 50 µM [4]: 22% | inhibition at 50 µM [5]: 2% | inhibition at 100 µM [6]: 31% | inhibition at 100 µM [1]: 21%

Compound: COc1ccc(COc2ccc(CCn3ccc(C(F)(F)F)n3)cc2)cc1 [6βq DAD 2.333]
inhibition at 50 µM [4]: 5% | inhibition at 100 µM [6]: 37%

IC50 (Lymphocyte): 40 µM
Compound: c1ccc2c(c1)cnn2CCc1ccc(OC2CCCCO2)cc1 (stereo not drawn) [11αe, 1-(4-((Tetrahydro-2H-pyran-2-yl)oxy)phenethyl)-1H-indazole]
inhibition at 0.1 µM [10]: 23% | inhibition at 1 µM [12]: 20% | inhibition at 10 µM [2]: 33% | inhibition at 10 µM [3]: 8% | inhibition at 50 µM [4]: 54% | inhibition at 50 µM [5]: 9% | inhibition at 100 µM [6]: 88% | inhibition at 100 µM [1]: 20%

Compound: COc1ccc(CCCOc2ccc(CCn3cnc4ccccc43)cc2)cc1 [6αn DAD 3-474]
inhibition at 1 µM [12]: -1% | inhibition at 1 µM [13]: 11% | inhibition at 10 µM [2]: -16% | inhibition at 10 µM [3]: 5% | inhibition at 50 µM [4]: -4% | inhibition at 50 µM [5]: -5% | inhibition at 100 µM [6]: 25% | inhibition at 100 µM [1]: 3%

Compound: COc1ccc(CCOc2ccccc2CCn2nc(C(F)(F)F)cc2C(F)(F)F)cc1 [6βz DAD 3.536]
inhibition at 10 µM [2]: 30% | inhibition at 10 µM [3]: 9% | inhibition at 50 µM [4]: 37% | inhibition at 50 µM [5]: 12% | inhibition at 100 µM [6]: 40% | inhibition at 100 µM [1]: 8%
